Laboratory results published in patent US11802111B2, “Cyclobutyl amide monoacylglycerol lipase modulators” (Janssen Pharmaceutica NV, priority 2020, dated 2023).

These molecules were tested against human MGL from HeLa cells (Homo sapiens (Human), UniProt Q99685) (assay: MGL in vitro activity assay ([glycerol-1,3-3H]-oleoyl glycerol hydrolysis, activated carbon filtration)). Settings: 300 nM [Glycerol-1,3-3H]-oleoyl glycerol, one hour.
Assay type: biochemical
Procedure, shortened: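 Endogenous human MGL in HeLa cells/homogenates incubated 1 h with test compounds and 300 nM [glycerol-1,3-3H]-oleoyl glycerol. Released 3H-glycerol passing an activated carbon filter counted as activity; screening at 10 μM compound, top IC50 concentration set empirically.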

Chain of human MGL from HeLa cells (Q99685 whole entry): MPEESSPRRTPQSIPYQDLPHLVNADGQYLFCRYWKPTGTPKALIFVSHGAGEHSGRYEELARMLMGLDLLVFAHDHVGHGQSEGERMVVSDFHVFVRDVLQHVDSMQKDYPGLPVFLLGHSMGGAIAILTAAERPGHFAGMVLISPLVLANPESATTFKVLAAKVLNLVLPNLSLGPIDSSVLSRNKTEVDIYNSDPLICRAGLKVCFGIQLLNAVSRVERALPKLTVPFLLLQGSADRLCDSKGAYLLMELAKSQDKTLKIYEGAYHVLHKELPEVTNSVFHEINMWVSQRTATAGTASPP

SMILES	IC50
CC(C)(C)c1cc(C2CCC3(CC2)CN(C(=O)[C@H]2C[C@@](C)(O)C2)C3)on1 [Example 382, (7-(3-(tert-Butyl)isoxazol-5-yl)-2-azaspiro[3.5]nonan-2-yl)((1s,3s)-3-hydroxy-3-methylcyclobutyl)methanone]	178 nM
C[C@]1(O)C[C@@H](C(=O)N2CC3(CC(c4ccc(C5CC5)cc4)C3)C2)C1 [Example 5, (6-(4-Cyclopropylphenyl)-2-azaspiro[3.3]heptan-2-yl)((1s,3s)-3-hydroxy-3-methylcyclobutyl)methanone]	292 nM
Cc1cc(OC(F)(F)F)cc(C2CCC3(C2)CN(C(=O)[C@H]2C[C@@](C)(O)C2)C3)c1 (mixture of isomers) [Example 93, (rac)-((1s,3s)-3-Hydroxy-3-methylcyclobutyl)(6-(3-methyl-5-(trifluoromethoxy)phenyl)-2-azaspiro[3.4]octan-2-yl)methanone]	20 nM
CC(F)(F)c1cccc(C2CCC3(C2)CN(C(=O)[C@H]2C[C@@](C)(O)C2)C3)c1 (mixture of isomers) [Example 90, (rac)-(6-(3-(1,1-Difluoroethyl)phenyl)-2-azaspiro[3.4]octan-2-yl)((1s,3s)-3-hydroxy-3-methylcyclobutyl)methanone]	64 nM
Cc1ccc(F)c(OC2CCC3(CC2)CN(C(=O)[C@H]2C[C@@](C)(O)C2)C3)n1 [Example 431, (7-((3-Fluoro-6-methylpyridin-2-yl)oxy)-2-azaspiro[3.5]nonan-2-yl)((1s,3s)-3-hydroxy-3-methylcyclobutyl)methanone]	97 nM
Cn1ccc2ccc(C3(F)CCC4(CC3)CN(C(=O)[C@H]3C[C@@](C)(O)C3)C4)nc21 [Example 341, (7-Fluoro-7-(1-methyl-1H-pyrrolo[2,3-b]pyridin-6-yl)-2-azaspiro[3.5]nonan-2-yl)((1s,3s)-3-hydroxy-3-methylcyclobutyl)methanone]	101 nM
CC[C@]1(O)C[C@@H](C(=O)N2CC3(CCC(Oc4ccc(C)c(C(F)(F)F)n4)CC3)C2)C1 [Example 452, ((1r,3s)-3-Ethyl-3-hydroxycyclobutyl)(7-((5-methyl-6-(trifluoromethyl)pyridin-2-yl)oxy)-2-azaspiro[3.5]nonan-2-yl)methanone]	20 nM
Cc1cc(C)cc([C@H]2CC[C@@]3(CC2)CN(C(=O)[C@H]2C[C@@](C)(O)C2)[C@@H]3C)c1 (stereo in doubt) [Example 351, ((1*R,4s,7*S)-7-(3,5-Dimethylphenyl)-1-methyl-2-azaspiro[3.5]nonan-2-yl)((1s,3*S)-3-hydroxy-3-methylcyclobutyl)methanone]	77 nM
Cc1cc(C(F)(F)F)ccc1OC1CCC2(CC1)CN(C(=O)[C@H]1C[C@@](C)(O)C1)C2 [Example 258, ((1s,3s)-3-Hydroxy-3-methylcyclobutyl)(7-(2-methyl-4-(trifluoromethyl)phenoxy)-2-azaspiro[3.5]nonan-2-yl)methanone]	0.2 nM
C[C@]1(O)C[C@@H](C(=O)N2CC3(CCC(Cc4ccc(C(F)(F)F)cc4)C3)C2)C1 (mixture of isomers) [Example 171, (rac)-((1s,3s)-3-Hydroxy-3-methylcyclobutyl)(6-(4-(trifluoromethyl)benzyl)-2-azaspiro[3.4]octan-2-yl)methanone]	6.8 nM
C[C@]1(O)C[C@@H](C(=O)N2CC3(CCC(c4ccc5ccn(CC(F)(F)F)c5n4)CC3)C2)C1 [Example 387, ((1s,3s)-3-Hydroxy-3-methylcyclobutyl)(7-(1-(2,2,2-trifluoroethyl)-1H-pyrrolo[2,3-b]pyridin-6-yl)-2-azaspiro[3.5]nonan-2-yl)methanone]	68 nM
C[C@]1(O)C[C@@H](C(=O)N2CC3(CCC(Cc4cccc(C(F)(F)F)c4)C3)C2)C1 (mixture of isomers) [Example 176, (rac)-((1s,3s)-3-Hydroxy-3-methylcyclobutyl)(6-(3-(trifluoromethyl)benzyl)-2-azaspiro[3.4]octan-2-yl)methanone]	11 nM
C[C@]1(O)C[C@@H](C(=O)N2CC3(CCC(Cc4ccc(C(F)F)cc4)C3)C2)C1 (mixture of isomers) [Example 182, (rac)-(6-(4-(Difluoromethyl)benzyl)-2-azaspiro[3.4]octan-2-yl)((1s,3s)-3-hydroxy-3-methylcyclobutyl)methanone]	34 nM
COc1ccccc1CC1CC2(C1)CN(C(=O)[C@H]1C[C@@](C)(O)C1)C2 [Example 216, ((1s,3s)-3-Hydroxy-3-methylcyclobutyl)(6-(2-methoxybenzyl)-2-azaspiro[3.3]heptan-2-yl)methanone]	12 nM
Cc1cc(OC(C)C)nc(C2CCC3(CC2)CN(C(=O)[C@H]2C[C@@](C)(O)C2)C3)c1 [Example 374, ((1s,3s)-3-Hydroxy-3-methylcyclobutyl)(7-(6-isopropoxy-4-methylpyridin-2-yl)-2-azaspiro[3.5]nonan-2-yl)methanone]	9.3 nM
COC1(c2ccccc2C)CCC2(CC1)CN(C(=O)[C@H]1C[C@@](C)(O)C1)C2 [Example 343, ((1s,3s)-3-Hydroxy-3-methylcyclobutyl)(7-methoxy-7-(o-tolyl)-2-azaspiro[3.5]nonan-2-yl)methanone]	16 nM
C[C@]1(O)C[C@@H](C(=O)N2CC3(CCC(Cc4ccc(C5CC5)cc4)C3)C2)C1 (mixture of isomers) [Example 200, (rac)-(6-(4-Cyclopropylbenzyl)-2-azaspiro[3.4]octan-2-yl)((1s,3s)-3-hydroxy-3-methylcyclobutyl)methanone]	6.9 nM

SMILES	IC50
Cc1cccc(CC2CC3(C2)CN(C(=O)[C@H]2C[C@@](C)(O)C2)C3)c1 [Example 165, ((1s,3s)-3-Hydroxy-3-methylcyclobutyl)(6-(3-methylbenzyl)-2-azaspiro[3.3]heptan-2-yl)methanone]	21 nM
Cc1cc(C2CC2)ccc1C1CC2(C1)CN(C(=O)[C@H]1C[C@@](C)(O)C1)C2 [Example 28, (6-(4-Cyclopropyl-2-methylphenyl)-2-azaspiro[3.3]heptan-2-yl)((1s,3s)-3-hydroxy-3-methylcyclobutyl)methanone]	125 nM
Cc1c(OC(C)C)cccc1C1CCC2(CC1)CN(C(=O)[C@H]1C[C@@](C)(O)C1)C2 [Example 362, ((1s,3s)-3-Hydroxy-3-methylcyclobutyl)(7-(3-isopropoxy-2-methylphenyl)-2-azaspiro[3.5]nonan-2-yl)methanone]	1.5 nM
Cc1nc([C@H](C)C2CC3(C2)CN(C(=O)[C@H]2C[C@@](C)(O)C2)C3)ccc1C(F)(F)F (stereo in doubt) [Example 312, ((1s,3*S)-3-Hydroxy-3-methylcyclobutyl)(6-((*R)-1-(6-methyl-5-(trifluoromethyl)pyridin-2-yl)ethyl)-2-azaspiro[3.3]heptan-2-yl)methanone]	5.4 nM
C[C@]1(O)C[C@@H](C(=O)N2CC3(CCC(c4cccc5nccn45)CC3)C2)C1 [Example 390]	722 nM
CCc1cccc(CC2CC3(C2)CN(C(=O)[C@H]2C[C@@](C)(O)C2)C3)c1 [Example 222, (6-(3-Ethylbenzyl)-2-azaspiro[3.3]heptan-2-yl)((1s,3s)-3-hydroxy-3-methylcyclobutyl)methanone]	5.1 nM
Cc1cc(OC(F)F)cc(C2CCC3(C2)CN(C(=O)[C@H]2C[C@@](C)(O)C2)C3)c1 (mixture of isomers) [Example 84, (rac)-(6-(3-(Difluoromethoxy)-5-methylphenyl)-2-azaspiro[3.4]octan-2-yl)((1s,3s)-3-hydroxy-3-methylcyclobutyl)methanone]	47 nM
Cc1cc(F)ccc1CC1CC2(C1)CN(C(=O)[C@H]1C[C@@](C)(O)C1)C2 [Example 273, (6-(4-Fluoro-2-methylbenzyl)-2-azaspiro[3.3]heptan-2-yl)((1s,3s)-3-hydroxy-3-methylcyclobutyl)methanone]	9.9 nM
CC(C)(C)c1ccc(OC2CC3(C2)CN(C(=O)[C@H]2C[C@@](C)(O)C2)C3)cc1 [Example 246, (6-(4-(tert-Butyl)phenoxy)-2-azaspiro[3.3]heptan-2-yl)((1s,3s)-3-hydroxy-3-methylcyclobutyl)methanone]	84 nM
Cc1ccc(C(F)(F)F)c(OC2CCC3(CC2)CN(C(=O)[C@H]2C[C@@](C)(O)C2)C3)n1 [Example 443, ((1s,3s)-3-Hydroxy-3-methylcyclobutyl)(7-((6-methyl-3-(trifluoromethyl)pyridin-2-yl)oxy)-2-azaspiro[3.5]nonan-2-yl)methanone]	17 nM
Cc1ccc(CC2CC3(C2)CN(C(=O)[C@H]2C[C@@](C)(O)C2)C3)nc1OC(C)C [Example 279, ((1s,3s)-3-Hydroxy-3-methylcyclobutyl)(6-((6-isopropoxy-5-methylpyridin-2-yl)methyl)-2-azaspiro[3.3]heptan-2-yl)methanone]	10 nM
C[C@]1(O)C[C@@H](C(=O)N2CC3(CCC(c4cc5ccccn5n4)CC3)C2)C1 [Example 388, ((1s,3s)-3-Hydroxy-3-methylcyclobutyl)(7-(pyrazolo[1,5-c]pyridin-2-yl)-2-azaspiro[3.5]nonan-2-yl)methanone]	198 nM
Cc1ccc([C@H]2CCC3(C2)CN(C(=O)[C@H]2C[C@@](C)(O)C2)C3)c(C)c1 (stereo in doubt) [Example 321, ((*S)-6-(2,4-Dimethylphenyl)-2-azaspiro[3.4]octan-2-yl)((1s,3*R)-3-hydroxy-3-methylcyclobutyl)methanone]	36 nM
CC(C)c1cccc(C2CC3(CCN(C(=O)[C@H]4C[C@@](C)(O)C4)C3)C2)c1 (stereo partly drawn) [Example 36, ((1s,3s)-3-Hydroxy-3-methylcyclobutyl)(2-(3-isopropylphenyl)-6-azaspiro[3.4]octan-6-yl)methanone]	153 nM
C[C@]1(O)C[C@@H](C(=O)N2CC3(CCC(Oc4ccc(OC(F)(F)F)cc4)CC3)C2)C1 [Example 262, ((1s,3s)-3-Hydroxy-3-methylcyclobutyl)(7-(4-(trifluoromethoxy)phenoxy)-2-azaspiro[3.5]nonan-2-yl)methanone]	3.2 nM
Cc1ccc(OC2CCC3(C2)CN(C(=O)[C@H]2C[C@@](C)(O)C2)C3)cc1C1CC1 (mixture of isomers) [Example 332, (rac)-(6-(3-Cyclopropyl-4-methylphenoxy)-2-azaspiro[3.4]octan-2-yl)((1s,3s)-3-hydroxy-3-methylcyclobutyl)methanone]	136 nM
